Measurements taken from PubChem BioAssay (NCI).
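96-well plates; 48 h exposure; 5 concentrations. Endpoints by linear interpolation between flanking doses. Not reached: highest tested concentration assigned. GI50 is the concentration that inhibits growth by half. The concentration for full growth arrest is given as TGI.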

What was measured:
Experiment in all cases: NCI tumour cell line growth inhibition, 48 h
DU-145 prostate = system: DU-145 prostate
SK-OV-3 ovarian = system: SK-OV-3 ovarian
UACC-257 melanoma = system: UACC-257 melanoma
A498 renal = system: A498 renal
BT-549 breast = system: BT-549 breast
PC-3 prostate = system: PC-3 prostate
786-0 renal = system: 786-0 renal
HL-60(TB) leukemia = system: HL-60(TB) leukemia
UACC-62 melanoma = system: UACC-62 melanoma
HS 578T breast = system: HS 578T breast

Structure (SMILES) | GI50 (DU-145 prostate) [µM] | TGI (DU-145 prostate) [µM] | GI50 (SK-OV-3 ovarian) [µM] | TGI (SK-OV-3 ovarian) [µM] | GI50 (UACC-257 melanoma) [µM] | TGI (UACC-257 melanoma) [µM] | GI50 (A498 renal) [µM] | TGI (A498 renal) [µM] | GI50 (BT-549 breast) [µM] | TGI (BT-549 breast) [µM] | GI50 (PC-3 prostate) [µM] | TGI (PC-3 prostate) [µM] | GI50 (786-0 renal) [µM] | TGI (786-0 renal) [µM] | GI50 (HL-60(TB) leukemia) [µM] | TGI (HL-60(TB) leukemia) [µM] | GI50 (UACC-62 melanoma) [µM] | TGI (UACC-62 melanoma) [µM] | GI50 (HS 578T breast) [µM] | TGI (HS 578T breast) [µM]
COc1ccc2nc3ccccc3c(NCCNCCO)c2c1 | 0.588 | 5.8 | 0.869 | 7.67 | 0.655 | 2.34 | 0.431 | 1.71 | 1.01 | 4.29 | 0.554 | 3.79 | 0.649 | 7.55 | 0.572 | 1.68 | 1.09 | 2.99 | 0.688 | 3.85
CC(C)(O)C1COC2=C1C(=O)c1ccccc1C2=O (centres undefined) | – | 43.5 | – | > 100 | – | > 100 | – | > 100 | – | 42.9 | – | > 100 | – | > 100 | – | 44.9 | – | 42.9 | – | > 100
O=c1ccc(N=Nc2ccccc2)ccc1O | – | 39.3 | – | > 100 | – | 51.7 | – | – | – | 56.6 | – | 28.6 | – | 58 | – | 51.2 | – | 25.4 | – | 35.3
C=C1C(=O)OC2CC(C)C(/C=C/C(C)=O)=CCC12 (centres undefined) | – | > 100 | – | > 100 | – | > 100 | – | > 100 | – | > 100 | – | > 100 | – | > 100 | – | > 100 | – | > 100 | – | > 100
C=CCC(N[C@@H](CO)c1ccccc1)c1ccc2ccccc2n1 (some centres undefined) | > 100 | > 100 | > 100 | > 100 | 32.4 | > 100 | 93.2 | > 100 | > 100 | > 100 | > 100 | > 100 | > 100 | > 100 | 12.3 | 51.5 | > 100 | > 100 | > 100 | > 100
Cc1cc(NC(=O)NCc2ccc(N3C(N)=NC(N)=NC3(C)C)cc2)ccc1S(=O)(=O)F | 1.35 | > 100 | 36.6 | > 100 | 33.6 | > 100 | > 46.4 | > 100 | 4.97 | > 67.6 | 0.0962 | 31 | 5.21 | > 100 | 0.716 | > 57.5 | 0.998 | > 100 | > 48.7 | > 100
COc1ccc(-c2nsc3c2NC(=O)CC3c2ccsc2)cc1 (centres undefined) | 0.422 | 2.87 | 0.313 | 13.7 | 3.08 | 38.4 | 0.171 | 0.808 | 1.28 | 40.8 | 0.334 | > 100 | 1.25 | > 100 | 0.143 | 20.6 | 0.295 | 65 | 0.269 | > 100
